According to ChEMBL document CHEMBL5321200, “Discovery of the GSH responsive "Y-PROTACs" targeting ALK and CDK4/6 as a potential treatment for cancer” (Eur J Med Chem, 2023):
The source made the active and inactive calls. The calls are words filed in the database; no cut-off is given here.

Tests used:
NCI-H3122 [1] = test: Induction of apoptosis in human NCI-H3122 cells assessed as late apoptotic cells at 1.25 uM incubated for 48 hrs by Annexin V-FITC/propidium iodide staining based flow cytometric analysis (reference value: 3.06%); format: functional
NCI-H1299 = test: Antiproliferative activity against human NCI-H1299 cells assessed as inhibition of cell growth incubated for 3 to 5 days by MTT assay; format: functional, cell-based
NCI-H3122 [2] = test: Inhibition of colony formation in human NCI-H3122 cells assessed as reduction in number of colonies at 0.312 uM measured after 10 days by crystal violet staining based microscopic analysis relative to control; format: functional; conditions: NCI-H3122, 240 h, time 10 day
NCI-H3122 [3] = test: Cell cycle arrest in human NCI-H3122 cells assessed as accumulation of cells at G0/G1 phase at 0.625 uM incubated for 24 hrs by propidium iodide staining based flow cytometric analysis (reference value: 48.68%); format: functional
[4] = Toxicity in BALB/c nude mouse xenografted with human NCI-H3122 cells assessed as reduction in body weight at 25 to 75 mg/kg, IG administered once daily for 18 days; format: organism-based; conditions: in vivo, po, 432 h, dose 25-75 mg/kg, time 18 day
NCI-H3122 [5] = test: Antitumor activity against human NCI-H3122 cells xenografted in BALB/c nude mouse assessed as reduction in tumor weight at 75 mg/kg, IG administered once daily for 18 days and measured after 12 hrs of last dose; format: functional, organism-based; conditions: time 444.0 hrs
[6] = molecular target: Protein cereblon/ALK tyrosine kinase receptor/Echinoderm microtubule-associated protein-like 4 (Homo sapiens) (UniProt Q9UM73+Q9HC35+Q96SW2); test: PROTAC activity at CRBN/EML4-ALK in human L02 cells assessed as reduction in ALK protein level at 1 to 20 uM incubated for 24 hrs in presence of GSH by Western blot analysis; format: cell-based; conditions: dose 1-20 µM
[7] = molecular target: Cyclin-dependent kinase 4 (Homo sapiens) (UniProt P11802); test: Inhibition of CDK4 (unknown origin) at 0.05 uM by LANCE Ultra TR-FRET assay relative to control
Chain of Cyclin-dependent kinase 4 (Homo sapiens) (P11802 whole entry): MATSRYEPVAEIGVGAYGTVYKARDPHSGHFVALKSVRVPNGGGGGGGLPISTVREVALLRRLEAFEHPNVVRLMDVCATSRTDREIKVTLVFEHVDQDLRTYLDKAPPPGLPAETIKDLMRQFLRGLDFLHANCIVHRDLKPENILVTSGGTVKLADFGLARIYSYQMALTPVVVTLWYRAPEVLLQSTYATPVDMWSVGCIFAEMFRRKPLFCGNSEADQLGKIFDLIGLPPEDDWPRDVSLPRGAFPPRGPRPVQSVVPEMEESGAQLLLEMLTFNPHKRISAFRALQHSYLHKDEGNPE

Chain of Protein cereblon/ALK tyrosine kinase receptor/Echinoderm microtubule-associated protein-like 4 (Homo sapiens) (Q96SW2 whole entry partner): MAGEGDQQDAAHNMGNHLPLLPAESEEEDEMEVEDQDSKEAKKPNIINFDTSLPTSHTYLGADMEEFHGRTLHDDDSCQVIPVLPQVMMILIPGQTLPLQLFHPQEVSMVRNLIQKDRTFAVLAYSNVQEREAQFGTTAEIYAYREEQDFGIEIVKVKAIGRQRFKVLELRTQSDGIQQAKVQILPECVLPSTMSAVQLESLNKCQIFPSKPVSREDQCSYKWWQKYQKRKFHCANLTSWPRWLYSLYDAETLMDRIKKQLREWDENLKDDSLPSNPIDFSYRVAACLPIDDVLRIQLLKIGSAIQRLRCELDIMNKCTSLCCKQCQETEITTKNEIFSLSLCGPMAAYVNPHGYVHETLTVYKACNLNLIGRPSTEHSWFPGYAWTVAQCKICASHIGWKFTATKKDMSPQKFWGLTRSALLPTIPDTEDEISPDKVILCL
Chain of Protein cereblon/ALK tyrosine kinase receptor/Echinoderm microtubule-associated protein-like 4 (Homo sapiens) (Q9HC35 whole entry partner): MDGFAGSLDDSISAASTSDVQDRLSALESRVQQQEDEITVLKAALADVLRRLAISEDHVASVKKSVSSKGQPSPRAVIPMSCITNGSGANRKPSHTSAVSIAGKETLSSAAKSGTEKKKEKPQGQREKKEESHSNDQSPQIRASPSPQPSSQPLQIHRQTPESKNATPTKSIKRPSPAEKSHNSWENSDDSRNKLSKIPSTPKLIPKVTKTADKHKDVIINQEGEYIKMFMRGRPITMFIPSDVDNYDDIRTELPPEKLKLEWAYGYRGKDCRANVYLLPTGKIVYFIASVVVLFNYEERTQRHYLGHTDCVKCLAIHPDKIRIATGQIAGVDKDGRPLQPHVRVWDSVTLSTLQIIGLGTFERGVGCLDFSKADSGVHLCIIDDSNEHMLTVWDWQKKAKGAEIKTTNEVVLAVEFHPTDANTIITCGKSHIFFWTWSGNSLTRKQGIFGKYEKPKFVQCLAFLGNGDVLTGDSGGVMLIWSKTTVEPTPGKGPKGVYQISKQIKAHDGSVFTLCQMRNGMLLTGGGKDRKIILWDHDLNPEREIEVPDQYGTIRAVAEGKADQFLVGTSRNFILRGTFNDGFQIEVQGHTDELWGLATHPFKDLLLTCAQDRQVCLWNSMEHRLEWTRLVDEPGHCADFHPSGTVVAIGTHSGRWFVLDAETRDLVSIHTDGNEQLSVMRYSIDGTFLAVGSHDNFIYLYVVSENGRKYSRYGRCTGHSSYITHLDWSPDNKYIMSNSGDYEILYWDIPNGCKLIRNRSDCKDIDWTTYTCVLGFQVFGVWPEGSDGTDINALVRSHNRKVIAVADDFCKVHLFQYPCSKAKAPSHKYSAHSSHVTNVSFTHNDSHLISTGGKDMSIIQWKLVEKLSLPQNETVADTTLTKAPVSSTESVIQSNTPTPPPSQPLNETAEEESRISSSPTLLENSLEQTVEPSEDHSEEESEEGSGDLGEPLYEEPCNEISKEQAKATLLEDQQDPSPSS
Chain of Protein cereblon/ALK tyrosine kinase receptor/Echinoderm microtubule-associated protein-like 4 (Homo sapiens) (Q9UM73 19-1620 limits assumed): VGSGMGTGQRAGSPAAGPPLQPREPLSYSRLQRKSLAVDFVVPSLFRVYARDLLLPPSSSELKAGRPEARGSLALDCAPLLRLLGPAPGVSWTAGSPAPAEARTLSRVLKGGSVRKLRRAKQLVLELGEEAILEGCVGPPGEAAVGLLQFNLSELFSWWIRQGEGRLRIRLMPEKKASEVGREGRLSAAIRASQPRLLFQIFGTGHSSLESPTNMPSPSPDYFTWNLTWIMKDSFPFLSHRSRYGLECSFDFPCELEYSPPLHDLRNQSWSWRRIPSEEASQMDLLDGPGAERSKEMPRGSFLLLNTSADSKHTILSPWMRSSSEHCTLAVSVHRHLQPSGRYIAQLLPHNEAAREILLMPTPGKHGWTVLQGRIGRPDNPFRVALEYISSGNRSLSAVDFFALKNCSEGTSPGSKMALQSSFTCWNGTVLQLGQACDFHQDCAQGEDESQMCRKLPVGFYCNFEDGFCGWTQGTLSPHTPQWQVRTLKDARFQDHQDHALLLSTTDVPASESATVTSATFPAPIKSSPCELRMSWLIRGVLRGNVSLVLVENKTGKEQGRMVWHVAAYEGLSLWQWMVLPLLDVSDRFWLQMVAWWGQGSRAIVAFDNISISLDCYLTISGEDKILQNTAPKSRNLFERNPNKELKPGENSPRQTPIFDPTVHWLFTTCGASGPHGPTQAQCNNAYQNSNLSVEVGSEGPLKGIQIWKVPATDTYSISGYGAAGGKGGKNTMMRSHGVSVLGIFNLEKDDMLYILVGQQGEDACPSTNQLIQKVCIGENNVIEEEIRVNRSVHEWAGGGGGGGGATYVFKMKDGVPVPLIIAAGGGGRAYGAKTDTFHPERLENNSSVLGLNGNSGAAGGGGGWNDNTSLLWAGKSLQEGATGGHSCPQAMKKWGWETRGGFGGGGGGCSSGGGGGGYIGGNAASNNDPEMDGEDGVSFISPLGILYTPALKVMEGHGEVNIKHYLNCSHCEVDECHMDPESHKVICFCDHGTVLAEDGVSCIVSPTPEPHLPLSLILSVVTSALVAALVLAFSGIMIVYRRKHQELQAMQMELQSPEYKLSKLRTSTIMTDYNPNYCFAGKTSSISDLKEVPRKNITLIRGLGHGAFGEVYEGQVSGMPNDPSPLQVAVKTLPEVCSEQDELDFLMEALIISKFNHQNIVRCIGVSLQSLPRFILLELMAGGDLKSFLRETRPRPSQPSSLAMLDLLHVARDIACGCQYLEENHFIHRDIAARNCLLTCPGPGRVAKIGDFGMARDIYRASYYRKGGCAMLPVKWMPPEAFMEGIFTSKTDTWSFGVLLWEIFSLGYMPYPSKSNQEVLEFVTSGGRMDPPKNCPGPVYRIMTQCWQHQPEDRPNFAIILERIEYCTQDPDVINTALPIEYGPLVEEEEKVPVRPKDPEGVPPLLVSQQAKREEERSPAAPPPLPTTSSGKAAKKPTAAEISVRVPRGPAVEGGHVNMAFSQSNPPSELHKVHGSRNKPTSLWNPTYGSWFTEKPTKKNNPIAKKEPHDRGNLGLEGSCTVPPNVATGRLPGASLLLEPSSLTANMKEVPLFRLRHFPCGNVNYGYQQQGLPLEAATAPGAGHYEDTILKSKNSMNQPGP

Compound: CC(=O)c1c(C)c2cnc(Nc3ccc(N4CCN(CC(=O)NCCSSCCN(CC(=O)NCCNc5cccc6c5C(=O)N(C5CCC(=O)NC5=O)C6=O)C(=O)CCCCCCC(=O)N5CCC(c6cc(OC(C)C)c(Nc7ncc(Cl)c(Nc8ccccc8S(=O)(=O)C(C)C)n7)cc6C)CC5)CC4)cn3)nc2n(C2CCCC2)c1=O (stereo not drawn)
- Activity (NCI-H3122 [1]): 10.54%
- IC50 (NCI-H1299): 21.2 µM
- inhibition at 0.312 µM (NCI-H3122 [2]): 100%
- Activity (NCI-H3122 [3]): 68.5%
- Activity [4]: Non-Toxic
- Activity (NCI-H3122 [5]): Active
- Activity [6]: Active
- inhibition [7]: 54.9%
